Test results as given in article PMC10518255, “A first-in-class pan-lysyl oxidase inhibitor impairs stromal remodeling and enhances gemcitabine response and survival in pancreatic cancer” (Nature Cancer, 2023).
Where “and” joins values, the source holds several entries; their conditions need not be identical. Equal entries are not always repeated.

Columns and labels:
Format in all cases: in vivo, mouse
[1] = system: KPC CCs liver colonization; experiment: Intrasplenic model of liver colonization, early administration of treatment; conditions: for metastases/mm2: early administration, individual animals; for number of metastatic foci in liver / size of metastatic foci in liver: treatment from day 1 until day 10
Protocol: (§1) Fig. 5 PXS-5505 administered in intrasplenic models of liver colonization. a, Schematic of the intrasplenic model of liver colonization with early administration of treatment. CCs were implanted into the spleen of BALB/c-Fox1nuAusb mice under anesthesia on day 0. Treatment with 0.9% saline (vehicle); twice-weekly Gem (100 mg kg^−1 i.p.) (Gem); daily PXS-5505 at 20 mg kg^−1 i.p. (PXS-5505) or daily PXS-5505 at 20 mg kg^−1 i.p. + twice-weekly Gem at 100 mg kg^−1 i.p. (PXS-5505 + Gem) was administered from day 1. At the end point (day 10) livers were collected and H&E-stained for scoring. Representative images of H&E-stained liver (taken from one biologically independent animal). Scale bar, 100 μm. b, Representative images of H&E-stained livers from each treatment group (n = 1 FOV taken from one biologically independent animal per group). Scale bars, 100 μm. c, Quantification of metastases per mm^2 (n = 9 biologically independent animals per group). Data are mean ± s.d. […] Data are mean ± s.d. Two-tailed P values were determined by an unpaired, nonparametric t-test with a Mann–Whitney U-test correction (comparison between two groups). e, Schematic of intrasplenic model of liver colonization with late administration of treatment. CCs were implanted into the spleen of BALB/c-Fox1nuAusb mice under anesthesia on day 0. Treatment with 0.9% saline (vehicle); twice-weekly Gem (100 mg kg^−1 i.p.) (Gem); daily PXS-5505 at 20 mg kg^−1 i.p. (PXS-5505); or daily PXS-5505 at 20 mg kg^−1 i.p. + three doses of Gem (100 mg kg^−1 i.p. (PXS-5505 + Gem) was administered from day 4. Representative images of H&E-stained liver (taken from one biologically independent animal). Scale bar, 100 μm. f, Quantification of metastases at endpoint (n = 10 biologically independent animals per treatment group, n = 5 biologically independent animals at day 4 for confirmation of overt metastases). Data are mean ± s.d. P values were determined by an unpaired, nonparametric t-test with a Mann–Whitney U-test correction (comparison between two groups). g, Representative images of H&E-stained livers from each treatment group. Scale bars, 100 μm. Source data
(§2) For the intrasplenic models, animals were randomized before receiving treatment. GLP-grade PXS-5505 (20 mg kg^−1) was administered daily i.p. (starting day 0 for the early stage and day 4 for the late stage) until the end point and gemcitabine (100 mg kg^−1) was administered on days 3, 6 and 9 for the early stage and days 5, 7 and 10 for the late stage.
KPC CCs (5 × 10^5 cells per mouse in 50 μl Hanks balanced saline solution) were slowly injected into the spleens of 8-week-old female BALB/c-Fox1nuAusb mice under anesthesia (isoflurane […], O2 1 l min^−1 with vacuum) as previous described. For the duration of the study mice were kept in conventional caging with environmental enrichment, access to standard chow, water ad libitum and 12-h light–dark cycle at ambient temperature and humidity. For intrasplenic studies, mice were culled at defined end points (10 d for early colonization studies and 11 d for late colonization studies). Animals with non-tumor-related complications that led to a premature end point were censored. At the end point, mice were imaged by whole-body bioluminescent imaging using an IVIS Spectrum (Caliper LS), culled and livers were removed for additional bioluminescent imaging before formalin fixing and paraffin embedding.
The 4-µm formalin-fixed paraffin-embedded (FFPE) sections were cut and stained for H&E following standard histopathology methodologies or stained for CK19 using the Bond RX H2(30) protocol detailed above. Whole liver sections were then digitized on an Aperio slide scanner for blinded analysis. The total number of liver metastases were quantified and determined using QuPath[57].

[2] = system: KPC CCs liver colonization; experiment: Intrasplenic model of liver colonization, late administration of treatment (established metastases); conditions: for Quantification of metastases/mm2 (late administration): Figure 5F, intrasplenic liver colonization, individual animals; for metastatic burden in liver: treatment from day 4, established metastases
Protocol: as §1
as §2, with “stage. […]” for “stage.”
The 4-µm formalin-fixed paraffin-embedded (FFPE) sections were cut and stained for H&E following standard histopathology methodologies or stained for CK19 using the Bond RX H2(30) protocol detailed above. […] The total number of liver metastases were quantified and determined using QuPath[57].

[3] = system: KPC PDAC tumors; experiment: FITC-dextran (10 kDa) perfusion imaging, KPC tumors; conditions: for FITC-dextran (10 kDa) signal quantification: Extended Data 5C, KPC tumour endpoint, individual FOV, 5xFOV per tumour
Protocol: FITC-dextran (10 kDa) was administered at 40 mg ml^−1 in saline via tail vain 2 h before culling. Excised tumors were flash-frozen in OCT and cryosectioned at 14 μm. Sections were counterstained with 4,6-diamidino-2-phenylindole (DAPI) and images were collected using a Leica DMI5500 (×40 magnification). Images were quantified using Fiji Software for Integrated Density Signal.
Extended Data Fig. 5 PXS-5505 in combination with gemcitabine in vivo. a. […] Signal is defined as the enzyme activity in the aorta, while noise is measured in the presence of a high concentration (300 µM) BAPN to abolish any lysyl oxidase family activity. […] Data presented as mean values +/− SD b. […] Data presented as mean values +/− SD. c. FITC-dextran (molecular weight: 10 kDa) signal quantification from KPC tumor end point from each treatment group (vehicle n = 3 biologically independent animals, PXS-5505 n = 5 biologically independent animals, Gem n = 5 biologically independent animals, PXS-5505 + Gem n = 5 biologically independent animals). […] P-values determined by Welchs t-test. Data presented as mean values +/− SD. Scale bars = 100 μm d. Quantification of red birefringent (mature) collagen fibers from human PDXs at end point after 3 cycles of treatment, treated as indicated. […] Quantification of bulk modulus (stiffness) by unconfined compression testing of end point human PDX tumors from each treatment group (vehicle n = 5 biologically independent animals, Gem n = 5 biologically independent animals, PXS-5505 n = 5 biologically independent animals, PXS-5505 + Gem n = 5 biologically independent animals) [individual tumors shown]). […] FITC-dextran (molecular weight 10 kDa) signal quantification from human PDXs from each treatment group (vehicle n = 4 biologically independent animals, PXS-5505 n = 5 biologically independent animals, Gem n = 5 biologically independent animals, PXS-5505 + Gem n = 5 biologically independent animals). […] P values determined by Welchs t-test. g. […] Quantification of green birefringent (nascent) collagen fibers from human PDXs at end point, treated as indicated. […]

| SMILES | metastases/mm2 [1] | number of metastatic foci in liver [1] | size of metastatic foci in liver [1] | Quantification of metastases/mm2 (late administration) [2] | metastatic burden in liver [2] | FITC-dextran (10 kDa) signal quantification [3] | FITC-dextran signal (tumor perfusion) ([3]; KPC tumors at end point) |
| --- | --- | --- | --- | --- | --- | --- | --- |
| Nc1ccn([C@@H]2O[C@H](CO)[C@@H](O)C2(F)F)c(=O)n1 [Gem, gemcitabine] | 1.138e-5 /mm2 and 9.508e-5 /mm2 and 3.779e-5 /mm2 and 0 /mm2 and 1.36e-5 /mm2 and 7.872e-6 /mm2 and 6.17e-6 /mm2 | fewer | smaller | 0.001632 metastases/mm2 and 0.001329 metastases/mm2 and 0.001736 metastases/mm2 and 0.001305 metastases/mm2 and 0.001793 metastases/mm2 and 0.001126 metastases/mm2 and 0.001529 metastases/mm2 and 0.001107 metastases/mm2 and 0.001352 metastases/mm2 and 0.001209 metastases/mm2 | did not significantly alter metastatic burden | 60068 and 66083 and 67045 and 264388 and 103749 and 136715 and 44993 and 342971 and 570220 and 195046 and 425899 and 308368 and 729076 and 598797 and 690249 and 193339 and 215616 and 99212 and 74761 and 57841 | significantly reduced FITC signal |
| Cl.Cl.NC/C=C(\F)CS(=O)(=O)c1cccc2cccnc12.O [PXS-5505, (Z)-3-fluoro-4-(quinolin-8-ylsulfonyl)but-2-en-1-amine dihydrochloride monohydrate] | 0.0002211 /mm2 and 8.732e-6 /mm2 and 2.758e-6 /mm2 and 0.0001431 /mm2 and 0.0002677 /mm2 and 0.0002826 /mm2 and 0.0003511 /mm2 and 0.0007717 /mm2 and 3.2079e-5 /mm2 | small decrease in number | not size of metastatic foci | 0.001672 metastases/mm2 and 0.001212 metastases/mm2 and 0.001664 metastases/mm2 and 0.001776 metastases/mm2 and 0.002261 metastases/mm2 and 0.001845 metastases/mm2 and 0.0007878 metastases/mm2 and 0.001204 metastases/mm2 and 0.001477 metastases/mm2 and 0.001663 metastases/mm2 | did not significantly alter metastatic burden | 643536 and 877109 and 855018 and 639402 and 1028780 and 1101294 and 1096543 and 614729 and 1678517 and 411292 and 888855 and 96222 and 332580 and 192955 and 224263 and 475860 and 248857 and 803743 and 104073 and 736895 |  |
